From patent US5087439A, “Paramagnetic metal-diethylenetriamine-pentaacetic acid partial amide complexes for magnetic resonance imaging” (Salutar, Inc., priority 1989, dated 1992)

Key:
[1] = Relaxivity (T1, T2) of the compound in human plasma at 10 MHz (37° C.); type: physicochemical; settings: for T1 Plasma / T2 Plasma: 10 MHz, 37° C.
Experimental: (§1) Relaxivity of the compound in water and in human plasma at 10 MHz (37° C.) (for practical purposes, the lower the T1 in a given part of the body, the brighter the image in MR imaging):
(§2) *T1 and T2 are relaxtion times in msec.

[2] = Relaxivity (T1, T2) of the compound in water at 10 MHz (37° C.); type: physicochemical
Experimental: as §1, §2

[3] = Organ distribution of the compound in male rabbits (organ T1 measured in vitro at 5 MHz); settings: 100 μmol/kg; for T1, Skeletal Muscle: male rabbits, 15 min post injection, 5 MHz
Experimental: The test compounds were injected into male rabbits at 100 μmol/kg. The rabbits were sacrificed at 15 minutes post injection and the relaxivity of internal organs was measured in vitro at 5 MHz.
The test compounds were injected into male rabbits at 100 μ mol/kg. The rabbits were sacrificed at 15 minutes post injection and the relaxivity of internal organs was measured in vitro at 5 MHz.

[4] = vs prior art compound, same dosage, from blood T1 at 20 minutes
Experimental: Pharmacokinetics of the compound in a pure breed beagle dog
A male dog was injected with the test compounds at 100 μ mol/kg. Blood was drawn at the indicated times. The plasma was separated and the relaxivity measured.

For `C[NH2+]C[C@H](O)[C@@H](O)[C@H](O)[C@H](O)CO.C[NH2+]C[C@H](O)[C@@H](O)[C@H](O)[C@H](O)CO.O=C([O-])CN(CCN(CC(=O)[O-])CC(=O)[O-])CCN(CC(=O)[O-])CC(=O)[O-].[Gd+3]` [Gd DTPA-di(N-methylglucamine), reference compound], the “T1 Plasma” value ([1]; 1.56 × 10^-3 M) was 134 ms, the “T2 Plasma” value ([1]; 1.56 × 10^-3 M) was 116 ms and the “T1 Plasma” value ([1]; 1.95 × 10^-4 M) was 636 ms. The “T1 Plasma” value ([1]; 3.13 × 10^-3 M) was 69 ms, the “T2 Plasma” value ([1]; 3.13 × 10^-3 M) was 61 ms and the “T1 Plasma” value ([1]; 3.91 × 10^-4 M) was 405 ms. The “T1 Plasma” value ([1]; 6.25 × 10^-3 M) was 39 ms, the “T2 Plasma” value ([1]; 6.25 × 10^-3 M) was 31 ms and the “T1 Plasma” value ([1]; 7.81 × 10^-4 M) was 240 ms. The “T1 Plasma” value ([1]; 9.77 × 10^-5 M) was 877 ms, the “T1 Water” value ([2]; 1.56 × 10^-3 M) was 163 ms and the “T2 Water” value ([2]; 1.56 × 10^-3 M) was 155 ms. For the same compound, the “T1 Water” value ([2]; 1.95 × 10^-4 M) was 1015 ms, the “T1 Water” value ([2]; 3.13 × 10^-3 M) was 83 ms and the “T2 Water” value ([2]; 3.13 × 10^-3 M) was 76 ms. The “T1 Water” value ([2]; 3.91 × 10^-4 M) was 582 ms, the “T1 Water” value ([2]; 6.25 × 10^-3 M) was 40 ms and the “T2 Water” value ([2]; 6.25 × 10^-3 M) was 35 ms. The “T1 Water” value ([2]; 7.81 × 10^-4 M) was 309 ms, the “T1, Skeletal Muscle” value [3] was 405 ms and the “change in spin lattice (T1) relaxation in the heart and liver” value ([3]; rabbits, 15 min, heart and liver) was “fails to produce any change”.
In the case of `CCCCCCNC(=O)CN(CCN(CCN(CC(=O)[O-])CC(=O)NCCCCCC)CC(=O)[O-])CC(=O)[O-].[Gd+3]` [Gd DTPA-bishexylamide], the “T1 Plasma” value ([1]; 1.17 × 10^-3 M) is reported as 83 ms, the “T2 Plasma” value ([1]; 1.17 × 10^-3 M) is reported as 71 ms and the “T1 Plasma” value ([1]; 1.46 × 10^-4 M) is reported as 403 ms. For the same compound, the “T1 Plasma” value ([1]; 1.82 × 10^-5 M) was 1087 ms, the “T1 Plasma” value ([1]; 2.34 × 10^-3 M) was 48 ms and the “T2 Plasma” value ([1]; 2.34 × 10^-3 M) was 39 ms. For the same compound, the “T1 Plasma” value ([1]; 2.92 × 10^-4 M) was 249 ms, the “T1 Plasma” value ([1]; 3.68 × 10^-5 M) was 881 ms and the “T1 Plasma” value ([1]; 4.67 × 10^-3 M) was 26 ms. The “T2 Plasma” value ([1]; 4.67 × 10^-3 M) was 21 ms, the “T1 Plasma” value ([1]; 5.84 × 10^-4 M) was 145 ms and the “T2 Plasma” value ([1]; 5.84 × 10^-4 M) was 123 ms. For the same compound, the “T1 Plasma” value ([1]; 7.30 × 10^-5 M) was 622 ms, the “T1 Plasma” value ([1]; 9.12 × 10^-6 M) was 1220 ms and the “T1 Plasma” value ([1]; 9.34 × 10^-3 M) was 15 ms. The “T2 Plasma” value ([1]; 9.34 × 10^-3 M) was 10 ms, the “proton relaxation in plasma compared with the prior art compound” value ([1]; vs Gd DTPA-di(N-methylglucamine), human plasma) was “almost three times better” and the “T1 Water” value ([2]; 1.17 × 10^-3 M) was 159 ms. For the same compound, the “T2 Water” value ([2]; 1.17 × 10^-3 M) was 147 ms, the “T1 Water” value ([2]; 1.46 × 10^-4 M) was 947 ms and the “T1 Water” value ([2]; 2.34 × 10^-3 M) was 81 ms. The “T2 Water” value ([2]; 2.34 × 10^-3 M) was 76 ms, the “T1 Water” value ([2]; 2.92 × 10^-4 M) was 561 ms and the “T1 Water” value ([2]; 4.67 × 10^-3 M) was 42 ms. For the same compound, the “T2 Water” value ([2]; 4.67 × 10^-3 M) was 36 ms, the “T1 Water” value ([2]; 5.84 × 10^-4 M) was 309 ms and the “T1 Water” value ([2]; 7.30 × 10^-5 M) was 1374 ms. The “T1 Water” value ([2]; 9.34 × 10^-3 M) was 23 ms, the “T2 Water” value ([2]; 9.34 × 10^-3 M) was 18 ms and the “T1, Skeletal Muscle” value [3] was 397 ms. For the same compound, the “improvement in image signal intensity” value [4] was “two-fold”.
